Test results published in patent US20240271100A1, “IN VITRO DIFFERENTIATION OF PANCREATIC ENDOCRINE CELLS” (VERTEX PHARMACEUTICALS INCORPORATED, priority 2020, published 2024).

Tests used:
EZH2 = EZH2 (Homo sapiens, UniProt Q15910); settings: cited from earlier work
[1] = tested on: Stage 6 cells (NKX6.1-positive, ISL1-positive endocrine cells); test: FGF2 applied at S6 of the Version A or Version B differentiation protocol; cell composition by flow cytometry; assay type: cell-based, human
Protocol: In one experiment, the effect of FGF2 treatment at S6 was examined by comparing Stage 6 cells generated with Version A protocol, as described in Example 1, or with Version A protocol plus FGF2 treatment (100 ng/mL) at S6 for the first 3 days.
In another experiment, the effect of FGF2 treatment at S6 was examined by comparing S6 cells generated under four differentiation conditions: Version A protocol; Version A protocol + FGF2 treatment (100 ng/mL for the first 12 days) at S6; Version B protocol; Version B protocol+ FGF2 treatment at S6. Version B protocol shares similar reagents and treatment timing with […], in Version B protocol, one difference from Version A protocols is that the cells were supplemented with 500 nM PDBU from day 5 of Stage 4 (S4d5) to day 2 of […] (S5d2). […]

[2] = tested on: PDX1-positive, NKX6.1-positive pancreatic progenitor cells; test: FGF2 applied at S5 day 1 and day 2 of the Version A differentiation protocol; flow cytometry on S6d1; assay type: cell-based, human; settings: FGF2 100 ng/mL at S5 day 1 and day 2; FIGS. 8A-8B
Protocol: (§1) For initial steps, basically, human pluripotent stem cell line SEM01 was thawed from a 3D suspension bank and seeded at a density of 1M cells/ml into 500 ml spinner flasks (Corning; 89,089-814) with 300 ml Nutristem media (Biological Industries 05-100-1A) supplemented with […] Y27632 (ab120129) and 100 ng/ml FGF2 (Peprotech RUO: 100-18B-1MG). Spinner flasks were placed on a magnetic stir plate (Chemglass) rotating at 60 r.p.m. in a humidified 37 C incubator set at 5% CO2. Cells were passaged every 72 hours. After 3 passages, cells were seeded at 0.5M cells/ml density and fed every 24 hours until 72 hours. Then, differentiation was initiated in spinner flasks using the Version A differentiation protocol which begins on day 1 of Stage 1 (S1, day 1). FGF2 was added to Stage 3, Stage 4, or Stage 5 as detailed below in the modified protocol.
(§2) Version A protocol is a 6-stage stepwise protocol. With Version A protocol, stem cells were treated with reagents in the following consecutive orders during the six stages: Stage 1 (S1), Activin-A for 3 days and also CHIR99021 for the first 24 hr; Stage 2 (S2), KGF for 3 days; Stage 3 (S3), KGF, PDBU, Sant-1, retinoic acid (RA), Activin A, and Thiazovivin for 2 days, and also DMH-1 for the first day; Stage 4 (S4), KGF, Sant-1, Thiazovivin, Activin A, and RA for 6 days; Stage 5 (S5), XXI, Alk5i, GC-1, LDN-193189, Thiazovivin, Staurosporine, and DZNEP for 7 days, and also RA, Sant-1, and Betacellulin for the first 2 days.
Upon completion of Stage 5, on Stage 6 day 1 (S6dl), the cells were collected, dispersed, and analyzed by flow cytometry. […] Stained cells were measured using an Accuri 6 flow cytometer (BD Biosciences) and analyzed using Accuri software.
In one experiment, Version A protocol, as described in Example 1, was compared with a modified protocol in which 100 ng/mL FGF2 was added on protocol day 15 and day 16 (Stage 5 day 1 and day 2). As described above, on S6dl, the cells were collected, dispersed, and analyzed by flow cytometry.

primitive gut tube cells = test: FGF2 applied during S3 of the Version A differentiation protocol; flow cytometry of the resulting endocrine cell population; assay type: cell-based, human
Protocol: An exemplary differentiation protocol, Version A, according to the present disclosure and its modified version, which added use of FGF2 at Stage 3, were tested for differentiating human stem cells into mature β cells capable of releasing insulin in response to glucose challenge in vitro.
as §1, §2
In one experiment, on protocol day 7 (S3, day 1; S3dl), 10 mL of cell clusters were taken from the spinner flask and aliquoted into 2 wells of ultra-low attachment 6-well plates (Corning 29443) (5 mL/well). The plate was placed on an orbital shaker set to 130 rpm in the incubator. Cells received either control Version A conditions as described above or were supplemented with FGF2 (100 ng/ml) on protocol day 7 and day 8 only (S3d1 and S3d2).
(§3) Upon completion of Stage 5, on Stage 6 day 1 (S6dl), the cells were collected, dispersed, and analyzed by flow cytometry. Briefly, islets were dispersed with TrypLE Express (Life Technologies; 12,604,013) at 37 C, fixed with 4% PFA for 20 mins at 4 C, blocked by 1 hour in FACS buffer (5% Donkey Serum and 0.1% Saponin in PBS) at room temperature, stained with NKX6.1 (DSHB FSSA12 1:100) and ISL1 (ab178400 1:500) antibodies diluted in FACS buffer overnight at 4 C. The next day, cells were washed twice with FACS buffer, stained with secondary antibody: anti-Rabbit AlexaFluor-488 (A31573 1:1000) and anti-Mouse Alexa Fluro-647 (A31571 1:1000) diluted in FACS buffer, and washed twice with FACS buffer. Stained cells were measured using an Accuri 6 flow cytometer (BD Biosciences) and analyzed using Accuri software.

[3] = tested on: PDX1-positive pancreatic progenitor cells; test: FGF2 applied during S4 of the Version A differentiation protocol; flow cytometry of the resulting endocrine cell population; assay type: cell-based, human
Protocol: as §1, §2, §3
In one experiment, Version A protocol, as described in Example 1, was compared with a modified protocol in which 100 ng/mL FGF2 was added on day 1, 3, and 5 of S4 to the culture medium. As described above, on S6dl, the cells were collected, dispersed, and analyzed by flow cytometry.

[4] = FGF2 treatment at S6, summary FIG. 8A
[5] = Version B protocol, FGF2 at S6, by S6d8 and S6d12, FIGS. 5A-C
[6] = FGF2 treatment at S3, by the end of S5, FIGS. 8A-8B
[7] = FGF2 100 ng/mL at S4 versus Version A without FGF2, FIG. 2B
[8] = FGF2 treatment at S4, FIGS. 8A-8B

Chain of EZH2 (Q15910 whole entry, species assumed): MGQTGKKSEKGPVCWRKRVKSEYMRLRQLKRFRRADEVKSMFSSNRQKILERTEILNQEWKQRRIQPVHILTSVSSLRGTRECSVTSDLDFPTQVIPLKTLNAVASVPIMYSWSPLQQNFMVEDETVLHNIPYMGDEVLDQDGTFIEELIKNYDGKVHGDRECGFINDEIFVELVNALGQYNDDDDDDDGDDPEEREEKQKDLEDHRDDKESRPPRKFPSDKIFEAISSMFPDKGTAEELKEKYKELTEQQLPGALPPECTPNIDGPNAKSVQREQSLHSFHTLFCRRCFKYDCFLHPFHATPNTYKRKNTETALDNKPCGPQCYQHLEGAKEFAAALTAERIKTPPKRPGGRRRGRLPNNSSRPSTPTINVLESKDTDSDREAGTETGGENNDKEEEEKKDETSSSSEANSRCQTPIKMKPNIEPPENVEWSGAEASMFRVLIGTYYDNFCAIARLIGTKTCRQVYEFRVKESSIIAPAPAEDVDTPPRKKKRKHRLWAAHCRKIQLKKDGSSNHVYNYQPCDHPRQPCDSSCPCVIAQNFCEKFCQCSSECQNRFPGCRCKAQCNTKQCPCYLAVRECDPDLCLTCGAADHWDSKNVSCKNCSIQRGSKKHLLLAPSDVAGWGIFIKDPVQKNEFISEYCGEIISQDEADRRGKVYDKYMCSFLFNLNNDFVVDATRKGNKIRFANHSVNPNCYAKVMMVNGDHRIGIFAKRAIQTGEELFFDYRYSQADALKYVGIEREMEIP
Chain of EZH2 (O75530 whole entry partner, species assumed): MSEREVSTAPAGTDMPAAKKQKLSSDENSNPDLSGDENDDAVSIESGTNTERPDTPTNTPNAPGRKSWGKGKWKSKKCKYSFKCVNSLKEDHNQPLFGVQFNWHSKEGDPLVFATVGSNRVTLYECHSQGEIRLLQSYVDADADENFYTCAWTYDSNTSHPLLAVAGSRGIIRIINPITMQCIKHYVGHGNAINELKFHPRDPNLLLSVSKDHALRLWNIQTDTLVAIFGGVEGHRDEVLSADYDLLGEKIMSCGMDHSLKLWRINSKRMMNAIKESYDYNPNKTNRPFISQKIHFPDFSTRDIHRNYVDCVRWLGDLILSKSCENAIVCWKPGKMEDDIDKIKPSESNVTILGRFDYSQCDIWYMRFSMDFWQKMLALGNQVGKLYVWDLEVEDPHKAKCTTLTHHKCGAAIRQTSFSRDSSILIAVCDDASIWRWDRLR
Chain of EZH2 (Q15022 whole entry partner, species assumed): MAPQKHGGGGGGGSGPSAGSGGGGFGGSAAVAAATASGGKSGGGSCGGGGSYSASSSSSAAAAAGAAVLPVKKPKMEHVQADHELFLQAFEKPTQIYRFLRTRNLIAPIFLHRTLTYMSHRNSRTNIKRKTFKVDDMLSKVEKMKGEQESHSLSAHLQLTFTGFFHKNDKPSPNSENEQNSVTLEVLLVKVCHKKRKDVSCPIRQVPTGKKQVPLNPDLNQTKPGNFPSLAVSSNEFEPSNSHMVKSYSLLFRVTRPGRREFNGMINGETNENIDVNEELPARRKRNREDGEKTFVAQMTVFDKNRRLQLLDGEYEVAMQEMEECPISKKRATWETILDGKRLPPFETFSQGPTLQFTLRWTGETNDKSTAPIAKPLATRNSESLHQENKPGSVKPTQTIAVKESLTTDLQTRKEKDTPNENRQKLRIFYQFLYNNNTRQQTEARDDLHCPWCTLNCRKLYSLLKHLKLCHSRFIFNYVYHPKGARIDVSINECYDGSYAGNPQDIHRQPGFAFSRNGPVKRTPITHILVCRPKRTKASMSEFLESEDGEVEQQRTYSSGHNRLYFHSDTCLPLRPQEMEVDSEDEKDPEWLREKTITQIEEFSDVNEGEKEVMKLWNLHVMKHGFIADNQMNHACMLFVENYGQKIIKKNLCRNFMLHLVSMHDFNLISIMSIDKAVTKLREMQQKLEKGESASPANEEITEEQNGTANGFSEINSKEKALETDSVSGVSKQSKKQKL

CC[C@H](C)n1cc(C)c2c(C(=O)NCc3c(C)cc(C)[nH]c3=O)cc(-c3ccc(N4CCNCC4)nc3)cc21 [GSK126]
selectivity over EZH1 (EZH2; EZH2 versus EZH1): 150 fold

CCCc1cc(C)[nH]c(=O)c1CNC(=O)c1cc(-c2ccc(N3CCN(C(C)C)CC3)nc2)cc2c1cnn2C(C)C [UNC1999]
selectivity compared with GSK126 (EZH2): less selective

FGF2: growth factor from the FGF family; human FGF2 polypeptide sequence (GenBank Accession NP 001997); Peprotech RUO: 100-18B-1MG
change in percentage of Ki67-positive cells ([1]; FGF2 at S6, both Version A and Version B protocols): increased | percentage of non-proliferating SOX9-positive cells (SOX9-positive, Ki67-negative) ([1]; FGF2 at S6, by S6d12, both Version A and Version B protocols, without FGF2 15%-25%, FIG. 6A): about 65% | percentage of proliferating SOX9-positive cells (SOX9-positive, Ki67-positive) ([1]; FGF2 at S6, by S6d12, both Version A and Version B protocols, without FGF2 close to zero, FIG. 6B): 15%-20% | change in percentage of proliferating non-SOX9 cells (SOX9-negative, Ki67-positive) ([1]; FGF2 treatment at S6, FIG. 6C): small change | effect on SC-EC cells, as measured by expression of VMAT1, or positivity for NKX6.1 and negativity for ISL1 ([1]; FGF2 treatment at S6, S6d4, S6d8, S6d12, FIGS. 7A-7B): small effect | change in percentage of SC-α cells [1, 4]: increase | change in percentage of SC-β cells [1, 4]: increase | change in percentage of SC-δ cells [1, 4]: increase | percentage of NKX6.1-positive, ISL1-positive SC-β cells ([1]; Version A plus FGF2 100 ng/mL at S6 for the first 3 days, flow cytometry, without FGF2 18.5%): 36.9% | change in percentage of SC-β cell ([1]; Version A protocol, FGF2 100 ng/mL for the first 12 days at S6, by S6d8 and S6d12): relatively unchanged | change in SC-δ cell percentage [1, 5]: increased | change in percentage of SC-α cells [1, 5]: reduced | change in percentage of SC-β cells [1, 5]: reduced | change in SOX9-positive cells ([1]; addition of FGF2 at S6, both Version A and Version B protocols): significantly increased | change in SC-EC cells [2]: decrease | change in SC-α cells [2]: increase | change in percentage of SC-β cells [2]: no significant change | percentage of SC-α cells that express ISL1, but do not express NKX6.1 (primitive gut tube cells; FGF2 100 ng/ml on S3d1 and S3d2, Version A, flow cytometry on S6d1, without FGF2 9.7%): 35.1% | percentage of SC-enterochromaffin cells (SC-EC) that express NKX6 but not ISL1.1 (primitive gut tube cells; FGF2 100 ng/ml on S3d1 and S3d2, Version A, flow cytometry on S6d1, without FGF2 31.7%): 13.1% | percentage of SC-β cells that express both NKX6.1 and ISL1 (primitive gut tube cells; FGF2 100 ng/ml on S3d1 and S3d2, Version A, flow cytometry on S6d1, without FGF2 49.3%): 36.6% | change in percentage of SC-EC cells (primitive gut tube cells; [6]): decreased | change in percentage of SC-β cells (primitive gut tube cells; [6]): decreased | change in percentage of SC-α cells (primitive gut tube cells; FGF2 treatment at S3, cells generated by the end of S5, FIGS. 8A-8B): increased | change in percentage of glucagon-positive, ARX-positive cells [3, 7]: increased | change in percentage of total ARX-positive cells [3, 7]: increased | increase of the percentage of somatostatin-positive SC-δ cells [3, 7]: about two | percentage of NKX6.1-negative, ISL1-positive SC-α cells ([3]; FGF2 100 ng/mL on day 1, 3 and 5 of S4, Version A, flow cytometry on S6d1, without FGF2 5.6%): 12.0% | percentage of NKX6.1-positive, ISL1-positive SC-β cells ([3]; FGF2 100 ng/mL on day 1, 3 and 5 of S4, Version A, flow cytometry on S6d1, without FGF2 around 43%): around 55% | change in percentage of SC-EC cells [3, 8]: decreased | change in percentage of SC-α cells [3, 8]: increase | change in percentage of SC-β cells [3, 8]: increase | change in percentage of SC-δ cells [3, 8]: increase | change in percentage of SOX9-positive cells [3, 8]: decreased | percentage of VMAT1-positive cells ([3]; FGF2 treatment at S4, without FGF2 about 60%, FIG. 3B): about 40% | percentage of SOX9-positive, NKX6.1-positive cells ([3]; FGF2 treatment at S4, without FGF2 around 12.5%): around 5% | percentage of total SOX9-positive cells ([3]; FGF2 treatment at S4, without FGF2 around 20%, FIG. 3A): around 14% | percentage of NKX6.1-positive, ISL1-negative cells ([3]; FGF2 treatment at S4, without FGF2 around 40%, FIG. 3B): around 20%
